# Assay results as given in patent US20080015386A1, “Crystal of L-Ornithine-Citric Acid Salt” (KYOWA HAKKO KOGYO CO., LTD., priority 2004, published 2008).
# Conditions: 25° C., relative humidity 75%, weight change measured until day 7; numerical values only in FIG. 1
# Method: A saturated aqueous solution of sodium chloride (approximately 200 mL) was allowed to stand in a plastic desiccator at 25° C. for 24 hours (relative humidity was adjusted to 75%). […] The weighing vessel was allowed to stand in the desiccator with the humidity adjusted, and the weight change of the weighing vessel was measured over the course of time.
# The hygroscopicity (hygroscopic degree) was calculated using the following formula (1) on the basis of the weight change at each measuring time. The measurement of the weight change of the weighing vessel was continued until day 7.
# Hygroscopic rate (%)=W3−W2/W2−W1×100 (1)
# W1=Weight (g) of a weighing vessel
# W2=Weight (g) of a weighing vessel filled with crystals before the test
# W3=Weight (g) of a weighing vessel filled with crystals after the test
structure (smiles),measurement,value
"NCCC[C@H](N)C(=O)O.NCCC[C@H](N)C(=O)O.O=C(O)CC(O)(CC(=O)O)C(=O)O [Example 1, L-ornithine-½ citric acid salt]",Hygroscopicity (hygroscopic rate),did not show notable hygroscopicity
